Activity coefficient data for 29 compounds are collected here from the NIST ThermoML archive (doi:10.1021/je0602723).

Numbers after ± are expanded uncertainties.

The nature of the data set: activity coefficient (dimensionless); of the first substance listed, at infinite dilution; xn = mol fraction of the nth substance listed. To be noted: Liquid, Chromatography, x1 = 0.

Consider `CCCCCCCCC` [nonane] + CCOS(=O)(=O)[O-].CCn1cc[n+](C)c1, for which the activity coefficient reads like this: (301.8 K) 357 ± 25; (312.4 K) 304 ± 21; (322.9 K) 249 ± 17; (333.5 K) 200 ± 14.

Take `CCCCc1ccccc1` [butylbenzene] + CCOS(=O)(=O)[O-].CCn1cc[n+](C)c1: the activity coefficient runs as follows: (343.7 K) 28.4 ± 1.9; (354.3 K) 26.3 ± 1.8; (364.8 K) 24.7 ± 1.7; (375.1 K) 23.2 ± 1.6; (385.6 K) 21.6 ± 1.5; (396.1 K) 20.1 ± 1.4.

As to `CCCCCC=O` [hexanal] + CCOS(=O)(=O)[O-].CCn1cc[n+](C)c1, the activity coefficient reads like this: (312.2 K) 11.4 ± 0.78; (322.9 K) 11.3 ± 0.77; (333.4 K) 11.1 ± 0.76.

Consider `CCC(=O)OC` [methyl propanoate] + CCOS(=O)(=O)[O-].CCn1cc[n+](C)c1, for which the activity coefficient by setting is: (322.9 K) 4.73 ± 0.32; (333.5 K) 4.58 ± 0.31; (344 K) 4.38 ± 0.3; (354.5 K) 4.1 ± 0.28; (364.9 K) 3.86 ± 0.26; (375.3 K) 3.61 ± 0.25.

Consider `CCCCC=O` [pentanal] + CCOS(=O)(=O)[O-].CCn1cc[n+](C)c1, for which the activity coefficient reads like this: (333.5 K) 5.19 ± 0.35; (343.9 K) 5.1 ± 0.35; (354.4 K) 4.96 ± 0.34; (364.8 K) 4.82 ± 0.33; (375.2 K) 4.69 ± 0.32.

With `CO` [methanol] + CCOS(=O)(=O)[O-].CCn1cc[n+](C)c1, the activity coefficient reads like this: (312.4 K) 0.41 ± 0.03; (323 K) 0.4 ± 0.03; (333.4 K) 0.39 ± 0.03; (343.8 K) 0.38 ± 0.03; (354.2 K) 0.36 ± 0.03.

`CCC=O` [propanal] + CCOS(=O)(=O)[O-].CCn1cc[n+](C)c1: the activity coefficient came out at 1.94 ± 0.13 (333.5 K); 1.9 ± 0.13 (343.9 K); 1.84 ± 0.12 (354.4 K); 1.8 ± 0.12 (364.8 K); 1.74 ± 0.12 (375.2 K).

As to `CCCC=O` [butanal] + CCOS(=O)(=O)[O-].CCn1cc[n+](C)c1, the activity coefficient runs as follows: (322.8 K) 3.47 ± 0.24; (333.4 K) 3.39 ± 0.23; (344 K) 3.35 ± 0.23; (354.5 K) 3.29 ± 0.22; (364.9 K) 3.23 ± 0.22; (375.3 K) 3.2 ± 0.22. Further, the activity coefficient (385.9 K) came to 3.14 ± 0.21.

`c1ccccc1` [benzene] + CCOS(=O)(=O)[O-].CCn1cc[n+](C)c1: the activity coefficient is, setting by setting: (301.8 K) 2.98 ± 0.2; (312.3 K) 2.94 ± 0.2; (323 K) 2.88 ± 0.2; (333.5 K) 2.79 ± 0.19; (343.9 K) 2.69 ± 0.18; (354.4 K) 2.59 ± 0.18. In addition, where the note is “364.7 K”, the activity coefficient came out at 2.5 ± 0.17.

`CCCCCc1ccccc1` [pentylbenzene] + CCOS(=O)(=O)[O-].CCn1cc[n+](C)c1: the activity coefficient was 43.5 ± 3 (354.3 K); 40.3 ± 2.8 (364.8 K); 38 ± 2.6 (375.1 K); 35 ± 2.4 (385.7 K); 32.4 ± 2.2 (396.1 K).

Take `CC(C)=O` [acetone] + CCOS(=O)(=O)[O-].CCn1cc[n+](C)c1: the activity coefficient was 1.64 ± 0.11 (323.1 K); 1.63 ± 0.11 (333.6 K); 1.61 ± 0.11 (343.9 K); 1.56 ± 0.1 (365 K); 1.54 ± 0.1 (375.4 K); 1.5 ± 0.1 (386 K).

Take `CCCO` [propan-1-ol] + CCOS(=O)(=O)[O-].CCn1cc[n+](C)c1: the activity coefficient is, setting by setting: (322.8 K) 1.23 ± 0.08; (333.5 K) 1.12 ± 0.07; (343.9 K) 1.05 ± 0.07; (364.9 K) 0.91 ± 0.06; (375.4 K) 0.87 ± 0.06.

For the compound `CCCCCCC(=O)OC` [methyl heptanoate] + CCOS(=O)(=O)[O-].CCn1cc[n+](C)c1, the activity coefficient runs as follows: (301.8 K) 29.8 ± 2; (312.4 K) 28.4 ± 1.9; (322.9 K) 27.1 ± 1.9; (333.4 K) 25.5 ± 1.8.

`C1COCCO1` [1,4-dioxane] + CCOS(=O)(=O)[O-].CCn1cc[n+](C)c1: the activity coefficient reads like this: (312.4 K) 2.1 ± 0.14; (333.4 K) 2.08 ± 0.14; (354.2 K) 2.06 ± 0.14.

On to `CCCCCCCC` [octane] + CCOS(=O)(=O)[O-].CCn1cc[n+](C)c1, for which the activity coefficient was 221 ± 15 (301.9 K), 184 ± 13 (312.5 K), 148 ± 10 (322.9 K) and 119 ± 8.2 (333.5 K).

As to `CCCCCO` [pentan-1-ol] + CCOS(=O)(=O)[O-].CCn1cc[n+](C)c1, the activity coefficient reads like this: (333.4 K) 2.58 ± 0.18; (343.9 K) 2.36 ± 0.16; (354.4 K) 2.22 ± 0.15; (364.7 K) 2.12 ± 0.14.

In the case of `CCCCC(=O)OC` [methyl pentanoate] + CCOS(=O)(=O)[O-].CCn1cc[n+](C)c1, the activity coefficient (333.6 K) stood at 11.6 ± 0.79; the activity coefficient (344.1 K) is 10.9 ± 0.74; the activity coefficient (354.5 K) was found to be 10.2 ± 0.69; the activity coefficient (364.9 K) amounted to 9.42 ± 0.64; the activity coefficient (375.4 K) was 8.57 ± 0.58; the activity coefficient (385.9 K) was determined as 7.75 ± 0.53.

Regarding `CCCc1ccccc1` [propylbenzene] + CCOS(=O)(=O)[O-].CCn1cc[n+](C)c1, the activity coefficient is 16.8 ± 1.1 (343.8 K); 15.7 ± 1.1 (354.3 K); 14.9 ± 1 (364.7 K); 14 ± 0.95 (375.1 K); 13.2 ± 0.9 (385.7 K).

Take `CCCCCCO` [hexan-1-ol] + CCOS(=O)(=O)[O-].CCn1cc[n+](C)c1: the activity coefficient runs as follows: (343.8 K) 3.52 ± 0.24; (354.2 K) 3.27 ± 0.22; (364.9 K) 3.06 ± 0.21; (375.2 K) 2.81 ± 0.19.

Consider `CCC(C)O` (stereo not given) [butan-2-ol] + CCOS(=O)(=O)[O-].CCn1cc[n+](C)c1, for which the activity coefficient by setting is: (312.5 K) 1.93 ± 0.13; (333.4 K) 1.65 ± 0.11; (344 K) 1.56 ± 0.1; (354.5 K) 1.45 ± 0.1; (364.9 K) 1.42 ± 0.09.

`CCCCCCC=O` [heptanal] + CCOS(=O)(=O)[O-].CCn1cc[n+](C)c1: the activity coefficient turned out to be 16.1 ± 1.1 (303.3 K); 15 ± 1 (312.2 K); 14 ± 0.96 (322.8 K); 13.1 ± 0.89 (333.3 K); 11.4 ± 0.78 (354.2 K).

As for `CCCCO` [butan-1-ol] + CCOS(=O)(=O)[O-].CCn1cc[n+](C)c1, the activity coefficient (323 K) came out at 1.68 ± 0.11; the activity coefficient (333.4 K) was 1.59 ± 0.11; the activity coefficient (343.8 K) came to 1.5 ± 0.1; the activity coefficient (354.2 K) worked out at 1.42 ± 0.09; the activity coefficient (365 K) stood at 1.29 ± 0.08.

Take `ON=C1CCCCC1` [cyclohexanone oxime] + CCOS(=O)(=O)[O-].CCn1cc[n+](C)c1: the activity coefficient came to 0.57 ± 0.04 (417.2 K) and 0.41 ± 0.03 (427.5 K).

As for `CC#N` [acetonitrile] + CCOS(=O)(=O)[O-].CCn1cc[n+](C)c1, the activity coefficient (312.2 K) turned out to be 0.81 ± 0.05, the activity coefficient (333.4 K) was 0.8 ± 0.05, the activity coefficient (343.9 K) came to 0.78 ± 0.05 and the activity coefficient (354.3 K) came to 0.77 ± 0.05.

Take `CCCC(=O)OC` [methyl butanoate] + CCOS(=O)(=O)[O-].CCn1cc[n+](C)c1: the activity coefficient stood at 7.29 ± 0.5 (344 K); 6.88 ± 0.47 (354.5 K); 6.58 ± 0.45 (364.9 K); 6.26 ± 0.43 (375.4 K); 5.9 ± 0.4 (385.9 K).

Regarding `CCO` [ethanol] + CCOS(=O)(=O)[O-].CCn1cc[n+](C)c1, the activity coefficient amounted to 0.86 ± 0.06 (302.4 K); 0.79 ± 0.05 (322.8 K); 0.73 ± 0.05 (333.5 K); 0.69 ± 0.05 (343.9 K); 0.67 ± 0.05 (354.3 K).

As for `CCC(C)(C)O` [2-methylbutan-2-ol] + CCOS(=O)(=O)[O-].CCn1cc[n+](C)c1, the activity coefficient (302 K) worked out at 2.51 ± 0.17; the activity coefficient (312.4 K) worked out at 2.44 ± 0.17; the activity coefficient (333.4 K) amounted to 2.21 ± 0.15; the activity coefficient (343.9 K) is 2.14 ± 0.15; the activity coefficient (354.4 K) was 2.07 ± 0.14.

In the case of `Cc1ccccc1` [toluene] + CCOS(=O)(=O)[O-].CCn1cc[n+](C)c1, the activity coefficient by setting is: (312.3 K) 5.77 ± 0.39; (323 K) 5.62 ± 0.38; (333.5 K) 5.45 ± 0.37; (343.9 K) 5.29 ± 0.36; (354.4 K) 5.08 ± 0.35; (364.7 K) 4.88 ± 0.33.

On to `CCCCCCCCCC` [decane] + CCOS(=O)(=O)[O-].CCn1cc[n+](C)c1, for which the activity coefficient was 504 ± 35 (301.8 K), 445 ± 31 (312.4 K), 389 ± 27 (322.9 K) and 331 ± 23 (333.5 K).
